Laboratory results published in patent US4250170A, “Antibacterial agents Bu-2349A and B and method of using same” (Bristol-Myers Company, priority 1979, dated 1981).
Values after ≈ are worked out from the molar mass of the structure shown. Read-outs that look alike come from different tables or passages of the source.

What was measured:
[1] = test system: Streptococcus viridans (Sv-1); assay: MIC, two-fold agar dilution; format: cell-based; conditions: 18 h, Table 3, GC agar, 10^-2 dilution
solubility = format: physicochemical; conditions: hydrochloride salt
[2] = test system: Escherichia coli (Ec-9), AAC(6')-1; assay: MIC, two-fold agar dilution; format: cell-based; conditions: 18 h, Table 3, Mueller-Hinton agar, 10^-4 dilution, enzyme AAC(6')-1
[3] = test system: Serratia marcescens (Sm-2); assay: MIC, two-fold agar dilution; format: cell-based; conditions: 18 h, Table 3, Mueller-Hinton agar, 10^-4 dilution
acute LD50 in mice = conditions: mouse, in vivo
[4] = test system: Klebsiella pneumoniae (Kp-2); assay: MIC, two-fold agar dilution; format: cell-based; conditions: 18 h
Protocol: (§1) The minimum inhibitory concentrations (MIC) of Bu-2349A and B were determined against a wide variety of bacteria by the two-fold agar dilution method. Mueller-Hinton agar medium was generally used for the determination of bacterial MIC except for species of Streptococcus, Neisseria and Hemophilus for which Gonococcus agar medium (GC agar, Nissui Co., Tokyo) was used. Gifu anaerobe agar medium (GAM agar, Eiken Co., Tokyo) was used for anaerobic bacteria. The MIC's were determined after overnight incubation at 37° C. with an initial inoculum equivalent to a 10^-4 dilution of an 18-hour culture for the aerobic and anaerobic bacteria, except for Streptococcus, Neisseria and Hemophilus for which a 10^-2 dilution was used.
(§2) The influence of inoculum size on MIC was tested on Mueller-Hinton agar using an inoculum of […], 10^-2 or 10^-4 dilution of the overnight culture of test organisms.
(§3) The effect of media pH on the MIC's of Bu-2349A was determined at three pH levels (6, 7 and 8) using Mueller-Hinton agar.
(§4) The media effect on the MIC's of Bu-2349A was tested using four kinds of assay media: Mueller-Hinton agar (MHA), nutrient agar (NA), heart infusion agar (HIA) and brain heart infusion agar (BHIA). The pH was adjusted at 7 and a 10^-4 dilution of overnight culture was used for the inoculum.

[5] = test system: Escherichia coli ML-1630 (Ec-5), APH(3')-1; assay: MIC, two-fold agar dilution; format: cell-based; conditions: 18 h
Protocol: as §1, §2, §3, §4

Mycobacterium 607 (M6-1) = assay: MIC, two-fold agar dilution; format: cell-based; conditions: 18 h, Table 3, Mueller-Hinton agar, 10^-4 dilution
[6] = test system: Acidoaminococcus fermentans ATCC 25085 (Ae-1); assay: MIC against anaerobic bacteria; format: cell-based; conditions: 18 h; Table 4; GAM Medium, pH 7
[7] = test system: Fusobacterium varium ATCC 8501 (Fv-1); assay: MIC against anaerobic bacteria; format: cell-based; conditions: ATCC8501, 18 h, Table 4, GAM Medium, pH 7
[8] = test system: Bacteroides fragilis (Bf-1); assay: MIC against anaerobic bacteria; format: cell-based; conditions: 18 h, Table 4, GAM Medium, pH 7
[9] = test system: Peptostreptococcus anaerobium B43 (Pb-1); assay: MIC against anaerobic bacteria; format: cell-based; conditions: 18 h, Table 4, GAM Medium, pH 7
[10] = test system: Enterobacter cloacae (El-35), AAC(3)-3; assay: MIC, two-fold agar dilution; format: cell-based; conditions: 18 h, Table 3, Mueller-Hinton agar, 10^-4 dilution, enzyme AAC(3)-3
Proteus rettgeri (Pr-2) = assay: MIC, two-fold agar dilution; format: cell-based; conditions: Providencia rettgeri, 18 h; Table 3; Mueller-Hinton agar, 10^-4 dilution
[11] = mouse blood level, paper disc-agar plate assay; format: in vivo; conditions: mice, im, 50 mg./kg.
Protocol: Blood levels were determined in mice following intramuscular administration of Bu-2349A at a dose of 50 mg./kg. Blood samples were collected from orbital sinuses and assayed by the paper disc-agar plate method using B. subtilis PCI 219 as the test organism.

[12] = test system: Staphylococcus aureus Smith (Sa-2); assay: MIC, two-fold agar dilution; format: cell-based; conditions: 18 h, Table 3, Mueller-Hinton agar, 10^-4 dilution
[13] = test system: S. aureus, E. coli, K. pneumoniae, P. vulgaris and P. mirabilis; assay: experimental infections in mice, overall statement; format: in vivo; conditions: im
Protocol: (§5) The in vivo antibacterial activity of Bu-2349A was determined by experimental infections in mice. Mice were challenged via the intraperitoneal route with a 100 X LD50 dose of the pathogens in a 5% suspension of hog gastric mucin (American Laboratories, Omaha, Neb.). Bu-2349A was administered by the intramuscular route immediately after the bacterial challenge.

[14] = test system: Hemophylus influenzae (He-2); assay: MIC, two-fold agar dilution; format: cell-based; conditions: 18 h; Table 3; GC agar, 10^-2 dilution
K. pneumoniae A9977 = assay: experimental infections in mice; format: in vivo; conditions: Klebsiella pneumoniae, A9977, 120 h, im, 100 X LD50 ip challenge, 5 days, read-out: PD50 (median protective dose)
Protocol: as §5

S. pneumoniae A20759 = assay: experimental infections in mice; format: in vivo; conditions: im
Protocol: as §5

E. coli Juhl = assay: experimental infections in mice; format: in vivo; conditions: Escherichia coli, 120 h, im, 100 X LD50 ip challenge, 5 days, read-out: PD50 (median protective dose)
Protocol: as §5

With `C=C1OC(OC2C(CO)OC(Oc3ccc(C(=O)NCCCNCCCCNCCCCN)cc3)C2O)C(O)C(OC2OC(CO)C(OC3OC(C)C(N)C(O)C3NC(=O)C(C)N)C(O)C2O)C1O` (stereo not drawn) [Bu-2349A] the MIC [1] was over 100 µg/mL, the “solubility in methanol, ethanol, dimethylsulfoxide and dimethylformamide” value (solubility; methanol, ethanol, dimethylsulfoxide and dimethylformamide) was “slightly soluble” and the “solubility in other common organic solvents” value (solubility; other common organic solvents) was “practically insoluble”. For the same molecule, the solubility in water (solubility; water) was “soluble”, the MIC [2] was 0.8 µg/mL (≈ 0.808 µM) and the MIC [3] was 25 µg/mL (≈ 25.2 µM). The LD50 (acute LD50 in mice; im, intramuscular) was 315 mg/kg, the LD50 (acute LD50 in mice; intravenous) was 35 mg/kg and the MIC ([4]; Table 3, Mueller-Hinton agar, 10^-4 dilution, read-out: MIC) was 3.1 µg/mL (≈ 3.13 µM). The MIC ([4]; pH 6, Table 6, Mueller-Hinton Agar, 10^-4 dilution, pH 6, read-out: MIC) was 50 µg/mL (≈ 50.5 µM), the MIC ([4]; pH 7) was 12.5 µg/mL (≈ 12.6 µM) and the MIC ([4]; pH 7, Table 5, Mueller-Hinton Agar, pH 7, inoculum 10^-2 dil., read-out: MIC) was 6.3 µg/mL (≈ 6.36 µM). It also gave an MIC ([4]; pH 7, Table 5, Mueller-Hinton Agar, pH 7, inoculum 10^-4 dil., read-out: MIC) of 3.1 µg/mL (≈ 3.13 µM), an MIC ([4]; pH 7, Table 6, Mueller-Hinton Agar, 10^-4 dilution, pH 7, read-out: MIC) of 3.1 µg/mL (≈ 3.13 µM) and an MIC ([4]; pH 7, Table 7, pH 7, 10^-4 dilution, BHIA, read-out: MIC) of 3.1 µg/mL (≈ 3.13 µM). The MIC ([4]; pH 7, Table 7, pH 7, 10^-4 dilution, HIA, read-out: MIC) was 1.6 µg/mL (≈ 1.62 µM), the MIC ([4]; pH 7, Table 7, pH 7, 10^-4 dilution, MHA, read-out: MIC) was 3.1 µg/mL (≈ 3.13 µM) and the MIC ([4]; pH 7, Table 7, pH 7, 10^-4 dilution, NA, read-out: MIC) was 1.6 µg/mL (≈ 1.62 µM). The MIC ([4]; pH 8, Table 6, Mueller-Hinton Agar, 10^-4 dilution, pH 8, read-out: MIC) was 3.1 µg/mL (≈ 3.13 µM), the MIC ([5]; Table 3, Mueller-Hinton agar, 10^-4 dilution, enzyme APH(3')-1) was 1.6 µg/mL (≈ 1.62 µM) and the MIC ([5]; pH 6, Table 6, Mueller-Hinton Agar, 10^-4 dilution, pH 6) was 50 µg/mL (≈ 50.5 µM). The MIC ([5]; pH 7, Table 5, Mueller-Hinton Agar, pH 7, inoculum 10^0 dil.) was 6.3 µg/mL (≈ 6.36 µM), the MIC ([5]; pH 7, Table 5, Mueller-Hinton Agar, pH 7, inoculum 10^-2 dil.) was 3.1 µg/mL (≈ 3.13 µM) and the MIC ([5]; pH 7, Table 5, Mueller-Hinton Agar, pH 7, inoculum 10^-4 dil.) was 3.1 µg/mL (≈ 3.13 µM). For the same molecule, the MIC ([5]; pH 7, Table 6, Mueller-Hinton Agar, 10^-4 dilution, pH 7) was 3.1 µg/mL (≈ 3.13 µM), the MIC ([5]; pH 7, Table 7, pH 7, 10^-4 dilution, BHIA) was 3.1 µg/mL (≈ 3.13 µM) and the MIC ([5]; pH 7, Table 7, pH 7, 10^-4 dilution, HIA) was 1.6 µg/mL (≈ 1.62 µM). The MIC ([5]; pH 7, Table 7, pH 7, 10^-4 dilution, MHA) was 3.1 µg/mL (≈ 3.13 µM), the MIC ([5]; pH 7, Table 7, pH 7, 10^-4 dilution, NA) was 1.6 µg/mL (≈ 1.62 µM) and the MIC ([5]; pH 8, Table 6, Mueller-Hinton Agar, 10^-4 dilution, pH 8) was 1.6 µg/mL (≈ 1.62 µM). For the same molecule, the MIC (Mycobacterium 607 (M6-1)) was 3.1 µg/mL (≈ 3.13 µM), the MIC [6] was 50 µg/mL (≈ 50.5 µM) and the MIC [7] was over 100 µg/mL. The MIC [8] was over 100 µg/mL, the MIC [9] was over 100 µg/mL and the MIC [10] was 3.1 µg/mL (≈ 3.13 µM). For the same molecule, the MIC (Proteus rettgeri (Pr-2)) was 0.8 µg/mL (≈ 0.808 µM), the “antibiotic activity in blood after 2 hours” value ([11]; after 2 hours) was “No antibiotic activity was detected” and the “elimination from the blood stream” value ([11]; after the peak) was “rapid elimination from the blood stream”. For the same molecule, the concentration at 0.25 h ([11]; mouse, blood, 15 minutes) was 15000 ng/mL, the concentration at 0.5 h ([11]; mouse, blood, 30 minutes) was 12000 ng/mL and the concentration at 1 h ([11]; mouse, blood, 60 minutes) was 2800 ng/mL. It also gave a concentration at 2 h ([11]; mouse, blood, 120 minutes) of over 1000 ng/mL, a Tmax ([11]; mouse, blood, read-out: time of peak blood level (converted)) of 15 min and an MIC [12] of 3.1 µg/mL (≈ 3.13 µM). For the same molecule, the “protection against systemic lethal infections” value [13] was “good protection”, the MIC [14] was over 100 µg/mL and the ED50 (K. pneumoniae A9977) was 7.2 mg/kg. For the same molecule, the ED50 (S. pneumoniae A20759; Streptococcus pneumoniae, A20759, 120 h, 100 X LD50 ip challenge, 5 days, read-out: PD50 (median protective dose)) was over 100 mg/kg, the “activity against the S. pneumoniae infection” value (S. pneumoniae A20759) was “inactive” and the ED50 (E. coli Juhl) was 5.4 mg/kg.
